Measurements reported in the supplement of paper PMC10307832.

How the values were obtained:
Test in all cases: relative viability (nuclei count vs DMSO), 5 days (fraction); higher = more cells survive
PC-14 = tested on: PC-14
Procedure, shortened: (§1)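 Nuclei were stained with Hoechst during a one-step fixation (final 0.05% Triton X-100, 1% formaldehyde, 1 ug/ml Hoechst) carried out 5 days after dosing, then counted on 4× images. The cells, lung cancer lines in 1536-well plates, had been dosed by pin tool the day after seeding with one drug alone or a fixed anchor-drug dose plus five library-drug doses (not always all listed) in √10 steps. Relative viability is the nuclei count in treated wells divided by that in vehicle wells, and each value is the median of duplicate plates.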

SK-MES-1 = tested on: SK-MES-1
Procedure, shortened: as §1

NCI-H1915 = tested on: NCI-H1915
Procedure, shortened: as §1

NCI-H2347 = tested on: NCI-H2347
Procedure, shortened: as §1

NCI-H661 = tested on: NCI-H661
Procedure, shortened: as §1

NCI-H520 = tested on: NCI-H520
Procedure, shortened: as §1

NCI-H727 = tested on: NCI-H727
Procedure, shortened: as §1

NCI-H3122 = tested on: NCI-H3122
Procedure, shortened: as §1

LXF-289 = tested on: LXF-289
Procedure, shortened: as §1

NCI-H1563 = tested on: NCI-H1563
Procedure, shortened: as §1

NCI-H1755 = tested on: NCI-H1755
Procedure, shortened: as §1

## CC1(C)CCC(c2ccc(Cl)cc2)=C(CN2CCN(c3ccc(C(=O)NS(=O)(=O)c4ccc(N[C@H](CCN5CCOCC5)CSc5ccccc5)c(S(=O)(=O)C(F)(F)F)c4)cc3)CC2)C1 [Navitoclax] + CS(=O)(=O)N1CCN(Cc2cc3nc(-c4cccc5[nH]ncc45)nc(N4CCOCC4)c3s2)CC1 [Pictilisib] (partner 1 µM)
PC-14; first compound 0.005 µM
  relative viability: 0.648
PC-14; first compound 0.01581 µM
  relative viability: 0.956
PC-14; first compound 0.05 µM
  relative viability: 0.746
PC-14; first compound 0.1581 µM
  relative viability: 0.748
PC-14; first compound 0.5 µM
  relative viability: 0.68
SK-MES-1; first compound 0.005 µM
  relative viability: 0.458
SK-MES-1; first compound 0.01581 µM
  relative viability: 0.48
SK-MES-1; first compound 0.05 µM
  relative viability: 0.355
SK-MES-1; first compound 0.1581 µM
  relative viability: 0.321
SK-MES-1; first compound 0.5 µM
  relative viability: 0.334
NCI-H1915; first compound 0.005 µM
  relative viability: 0.893
NCI-H1915; first compound 0.01581 µM
  relative viability: 1.02
NCI-H1915; first compound 0.05 µM
  relative viability: 1.01
NCI-H1915; first compound 0.1581 µM
  relative viability: 0.933
NCI-H1915; first compound 0.5 µM
  relative viability: 0.902
NCI-H2347; first compound 0.005 µM
  relative viability: 0.63
NCI-H2347; first compound 0.01581 µM
  relative viability: 0.702
NCI-H2347; first compound 0.05 µM
  relative viability: 0.649
NCI-H2347; first compound 0.1581 µM
  relative viability: 0.395
NCI-H2347; first compound 0.5 µM
  relative viability: 0.734
NCI-H661; first compound 0.005 µM
  relative viability: 0.48
NCI-H661; first compound 0.01581 µM
  relative viability: 0.443
NCI-H661; first compound 0.05 µM
  relative viability: 0.379
NCI-H661; first compound 0.1581 µM
  relative viability: 0.406
NCI-H661; first compound 0.5 µM
  relative viability: 0.465
NCI-H520; first compound 0.005 µM
  relative viability: 0.305
NCI-H520; first compound 0.01581 µM
  relative viability: 0.374
NCI-H520; first compound 0.05 µM
  relative viability: 0.3
NCI-H520; first compound 0.1581 µM
  relative viability: 0.322
NCI-H520; first compound 0.5 µM
  relative viability: 0.281
NCI-H727; first compound 0.005 µM
  relative viability: 0.398
NCI-H727; first compound 0.01581 µM
  relative viability: 0.423
NCI-H727; first compound 0.1581 µM
  relative viability: 0.33
NCI-H727; first compound 0.5 µM
  relative viability: 0.171
NCI-H3122; first compound 0.005 µM
  relative viability: 0.592
NCI-H3122; first compound 0.01581 µM
  relative viability: 0.585
NCI-H3122; first compound 0.05 µM
  relative viability: 0.537
NCI-H3122; first compound 0.1581 µM
  relative viability: 0.601
NCI-H3122; first compound 0.5 µM
  relative viability: 0.55
LXF-289; first compound 0.005 µM
  relative viability: 0.821
LXF-289; first compound 0.01581 µM
  relative viability: 0.872
LXF-289; first compound 0.05 µM
  relative viability: 0.737
LXF-289; first compound 0.1581 µM
  relative viability: 0.799
LXF-289; first compound 0.5 µM
  relative viability: 0.768
NCI-H1563; first compound 0.005 µM
  relative viability: 0.603
NCI-H1563; first compound 0.01581 µM
  relative viability: 0.667
NCI-H1563; first compound 0.05 µM
  relative viability: 0.577
NCI-H1563; first compound 0.1581 µM
  relative viability: 0.583
NCI-H1563; first compound 0.5 µM
  relative viability: 0.693
NCI-H1755; first compound 0.005 µM
  relative viability: 0.425
NCI-H1755; first compound 0.01581 µM
  relative viability: 0.434
NCI-H1755; first compound 0.05 µM
  relative viability: 0.252
NCI-H1755; first compound 0.1581 µM
  relative viability: 0.406
